ChEMBL document CHEMBL5608235, “Tricyclic Benzo[1,3]oxazinyloxazolidinones as Potent Antibacterial Agents against Drug-Resistant Pathogens” (J Med Chem, 2024)
Values after ≈ are worked out from the molar mass of the structure shown. Active and inactive are the calls of the source. No cut-off for these calls is given here.

What was measured:
[1] = Free AUC in BALB/c mouse at 10 mg/kg,po administration measured upto 24 hrs by LC-MS/MS analysis; format: ADME, organism-based; settings: in vivo
Staphylococcus aureus [2] = experiment: Antibacterial activity against methicillin resistant Staphylococcus aureus ATCC 33592 infected in cyclophosphamide-induced immunosuppressed Kunming mouse assessed as reduction in histopathological change in spleen at 50 mg/kg,po administration measured after 24 hrs by hematoxylin and eosin staining based microscopy; format: functional, organism-based
Cell membrane [3] = experiment: Disruption of cell membrane in methicillin resistant Staphylococcus aureus ATCC 33592 assessed as cell surface perforation at 1 ug/ml incubated for 6 hrs by Scanning electron microscopic analysis; format: cell membranes; settings: dose 1.0 µg/ml
Staphylococcus aureus [4] = experiment: Antibacterial activity against methicillin resistant Staphylococcus aureus ATCC 33592 infected in cyclophosphamide-induced immunosuppressed Kunming mouse assessed as reduction in inflammatory cell infiltration in liver at 50 mg/kg,po administration measured after 24 hrs by hematoxylin and eosin staining based microscopy; format: functional, organism-based
[5] = test system: Staphylococcus epidermidis; experiment: Antibacterial activity against methicillin resistant Staphylococcus epidermidis clinical isolate 20-2 assessed as inhibition of bacterial growth incubated for 7 days by alamar blue assay; format: functional; settings: clinical isolate 20-2, 168 h, time 7 day
[6] = test system: Staphylococcus epidermidis; experiment: Antibacterial activity against Staphylococcus epidermidis ATCC12228 assessed as inhibition of bacterial growth incubated for 18 hrs by microdilution broth assay; format: functional
[7] = test system: Staphylococcus epidermidis; experiment: Antibacterial activity against methicillin resistant Staphylococcus epidermidis clinical isolate 20-1 assessed as inhibition of bacterial growth incubated for 7 days by alamar blue assay; format: functional; settings: clinical isolate 20-1, 168 h, time 7 day
[8] = test system: Mycobacterium tuberculosis; experiment: Antibacterial activity against Mycobacterium tuberculosis H37Rv assessed as inhibition of bacterial growth incubated for 7 days by alamar blue assay; format: functional; settings: 168 h, time 7 day
Staphylococcus aureus [9] = experiment: Antibacterial activity against methicillin resistant Staphylococcus aureus ATCC 33592 infected in cyclophosphamide-induced immunosuppressed Kunming mouse assessed as increase in body weight at 50 mg/kg,po administration measured for 7 days; format: functional, organism-based; settings: time 7.0 day
Enterococcus = experiment: Antibacterial activity against vancomycin resistant Enterococcus clinical isolate 20-1 assessed as inhibition of bacterial growth incubated for 7 days by alamar blue assay; format: functional; settings: clinical isolate 20-1, 168 h, time 7 day
Staphylococcus aureus [10] = experiment: Antibacterial activity against methicillin resistant Staphylococcus aureus ATCC 33592 infected in cyclophosphamide-induced immunosuppressed Kunming mouse assessed as reduction in histopathological change in heart at 50 mg/kg,po administration measured after 24 hrs by hematoxylin and eosin staining based microscopy; format: functional, organism-based
Staphylococcus aureus [11] = experiment: Antibacterial activity against vancomycin intermediate Staphylococcus aureus ATCC700699 assessed as inhibition of bacterial growth incubated for 7 days by alamar blue assay; format: functional; settings: ATCC700699, 168 h, time 7 day
Staphylococcus aureus [12] = experiment: Antibacterial activity against methicillin resistant Staphylococcus aureus ATCC 33592 infected in cyclophosphamide-induced immunosuppressed Kunming mouse assessed as reduction in pigment deposition in spleen at 50 mg/kg,po administration measured after 24 hrs by hematoxylin and eosin staining based microscopy; format: functional, organism-based
Staphylococcus aureus [13] = experiment: Antibacterial activity against methicillin resistant Staphylococcus aureus clinical isolate 20-1 assessed as inhibition of bacterial growth incubated for 7 days by alamar blue assay; format: functional; settings: clinical isolate 20-1, 168 h, time 7 day
Staphylococcus aureus [14] = experiment: Antibacterial activity against Linezolid resistant Staphylococcus aureus clinical isolate 20-2 assessed as inhibition of bacterial growth incubated for 7 days by alamar blue assay; format: functional; settings: clinical isolate 20-2, 168 h, time 7 day
Staphylococcus aureus [15] = experiment: Inhibition of protein synthesis in Staphylococcus aureus ATCC 29213 by translation assay; format: functional, organism-based
[16] = Cytotoxicity against African green monkey Vero cells incubated for 48 hrs by MTT assay; format: toxicity, cell-based, Chlorocebus sabaeus
Staphylococcus aureus [17] = experiment: Inhibition of biofilm formation in methicillin resistant Staphylococcus aureus ATCC 33592 at 0.1 to 10 ug/ml incubated for 48 hrs by crystal violet staining based assay; format: functional, organism-based; settings: dose 0.1-10 µg/ml
Staphylococcus aureus [18] = experiment: Antibacterial activity against methicillin resistant Staphylococcus aureus ATCC 33592 infected in cyclophosphamide-induced immunosuppressed Kunming mouse assessed as reduction in congestion in spleen at 50 mg/kg,po administration measured after 24 hrs by hematoxylin and eosin staining based microscopy; format: functional, organism-based
Enterococcus faecalis = experiment: Antibacterial activity against Enterococcus faecalis ATCC29212 assessed as inhibition of bacterial growth incubated for 18 hrs by microdilution broth assay; format: functional
Staphylococcus aureus [19] = experiment: Antibacterial activity against Linezolid resistant Staphylococcus aureus assessed as inhibition of bacterial growth incubated for 7 days by alamar blue assay; format: functional; settings: 168 h, time 7 day
Cell membrane [20] = experiment: Disruption of cell membrane in methicillin resistant Staphylococcus aureus ATCC 33592 assessed as cell shrinkage at 1 ug/ml incubated for 6 hrs by Scanning electron microscopic analysis; format: cell membranes; settings: dose 1.0 µg/ml
Staphylococcus aureus [21] = experiment: Antibacterial activity against methicillin resistant Staphylococcus aureus clinical isolate 20-2 assessed as inhibition of bacterial growth incubated for 7 days by alamar blue assay; format: functional; settings: clinical isolate 20-2, 168 h, time 7 day
Bacillus subtilis = experiment: Antibacterial activity against Bacillus subtilis ATCC6633 assessed as inhibition of bacterial growth incubated for 18 hrs by microdilution broth assay; format: functional
Staphylococcus aureus [22] = experiment: Antibacterial activity against Linezolid resistant Staphylococcus aureus clinical isolate 20-1 assessed as inhibition of bacterial growth incubated for 7 days by alamar blue assay; format: functional; settings: clinical isolate 20-1, 168 h, time 7 day
Staphylococcus aureus [23] = experiment: Inhibition of biofilm formation in Staphylococcus aureus ATCC 29213 at 10 ug/ml incubated for 48 hrs by crystal violet staining based assay; format: functional, organism-based; settings: dose 10.0 µg/ml
Staphylococcus aureus [24] = experiment: Antibacterial activity against methicillin resistant Staphylococcus aureus ATCC 33592 infected in cyclophosphamide-induced immunosuppressed Kunming mouse assessed as reduction in inflammatory cell infiltration in kidney at 50 mg/kg,po administration measured after 24 hrs by hematoxylin and eosin staining based microscopy; format: functional, organism-based

CC(=O)NC[C@H]1CN(c2ccc(N3CCOCC3)c(F)c2)C(=O)O1 [LINEZOLID]
fAUC [1]: 5260 ng·h/mL | Activity (Staphylococcus aureus [2]): Active | Activity (Cell membrane [3]): Active | Activity (Staphylococcus aureus [4]): Active | MIC [5]: 0.5 µg/mL (≈ 1.48 µM) | MIC [6]: 2 µg/mL (≈ 5.93 µM) | MIC [7]: 0.5 µg/mL (≈ 1.48 µM) | MIC [8]: 0.8 µg/mL (≈ 2.37 µM) | Activity (Staphylococcus aureus [9]): Active | MIC (Enterococcus): 2 µg/mL (≈ 5.93 µM) | Activity (Staphylococcus aureus [10]): Active | MIC (Staphylococcus aureus [11]): 1 µg/mL (≈ 2.96 µM) | Activity (Staphylococcus aureus [12]): Active | MIC (Staphylococcus aureus [13]): 1 µg/mL (≈ 2.96 µM) | MIC (Staphylococcus aureus [14]): 8 µg/mL (≈ 23.7 µM) | IC50 (Staphylococcus aureus [15]): 1.1 µg/mL (≈ 3.26 µM) | IC50 at 48 h [16]: > 64 µg/mL | inhibition (Staphylococcus aureus [17]): Active | Activity (Staphylococcus aureus [18]): Active | MIC (Enterococcus faecalis): 0.5 µg/mL (≈ 1.48 µM) | MIC (Staphylococcus aureus [19]): 8 µg/mL (≈ 23.7 µM) | Activity (Cell membrane [20]): Active | MIC (Staphylococcus aureus [21]): 1 µg/mL (≈ 2.96 µM) | MIC (Bacillus subtilis): > 64 µg/mL | MIC (Staphylococcus aureus [22]): 8 µg/mL (≈ 23.7 µM) | inhibition (Staphylococcus aureus [23]): Active | Activity (Staphylococcus aureus [24]): Active
